# Patent US8921344B2, “Formulations and uses of 2-hydroxy-5-phenylazobenzoic acid derivatives” (Salix Pharmaceuticals, Inc., priority 2006, dated 2014)
# Key:
# clinical = experiment: clinical; parameters: species or system human; details: in vivo; for AUClast / Tmax / AUC(0-t): male, po; for AUClast / Tmax / AUC(0-t) / AUClast ratio Treatment B/A / Cmax ratio Treatment B/A: human; for AUC(0-t): AUClast
# Text: Study periods were separated by a minimum of 4 days. […] The standard pharmacokinetic parameters are shown for both dosing conditions in Table 1.
# This delay is indicative of a slower transit of the drug through the GI tract.
# [1] = cited from earlier work
# [2] = cited from earlier work; remark: listed apart in the source
# [3] = compared with 5-ASA; cited from earlier work
Structure (SMILES),AUClast (clinical) [µg·h/mL],AUC(0-t) (clinical) [µg·h/mL],Change of systemic level as measured by Cmax (clinical),AUClast ratio Treatment B/A (clinical),Cmax ratio Treatment B/A (clinical),further results
"Nc1ccc(C(=O)NCCC(=O)O)cc1 [4-ABA, 4-amino benzoyl-β-alanine]",0.302 ± 0.26207,0.288 ± 0.158,–,–,–,"Tmax (clinical): 24.0 ± 8.51 h; Tmax (clinical; Tmax): 12.7 ± 9.46 h; Absorption of the released carrier component ([1]; released in the colon, largely eliminated in the feces): poorly absorbed"
"Nc1ccc(O)c(C(=O)O)c1 [5-ASA, 5-aminosalicylic acid, reference compound]",2.0964 ± 2.57731,2.59 ± 1.46,significant decreases,–,–,Change of systemic level as measured by AUClast (clinical): significant decrease
"O=C(O)CCNC(=O)c1ccc(/N=N/c2ccc(O)c(C(=O)O)c2)cc1 [Balsalazide, reference compound]",–,–,–,1.146,0.791,Part of the prodrug that reaches the colon ([1]; taken orally): 99%
O=C(O)CCNC(=O)c1ccc(/N=N/c2ccc(O)c(C(=O)O)c2)cc1 [Disodium balsalazide],–,–,–,–,–,Water solubility [2]: highly water-soluble
"CC(=O)Nc1ccc(O)c(C(=O)O)c1 [N-Ac-5-ASA, N-acetyl-5-ASA]",–,–,significant decreases,0.819,0.639,Anti-inflammatory activity in the colon [3]: lower anti-inflammatory activity; Part of the oral dose measured in the blood / systemically absorbed ([1]; after oral balsalazide): ~12 % of the oral dose
